# Measurements: patent US9181223B2, “2-aminopyrimidin-6-ones and analogs exhibiting anti-cancer and anti-proliferative activities” (Deciphera Pharmaceuticals, LLC, priority 2013, dated 2015)
# How the values were obtained:
# [1] = biological target: T1, unphosphorylated PDGFRβ kinase (uPDGFRβ, Seq. ID No. 3) (Homo sapiens, UniProt P09619); assay: uPDGFRβ kinase assay (ADP production coupled to pyruvate kinase/lactate dehydrogenase); assay type: biochemical; settings: enzymatic assay, ATP 500 μM
# T1 construct: purchased DeCode
# Experimental: Unphosphorylated […]β) Kinase (Seq. ID No. 3) Assay Activity of unphosphorylated PDGFRβ kinase ([…] No. 3) was determined by following the production of ADP from the kinase reaction with ATP and poly E4Y as substrates through coupling with the pyruvate kinase/lactate dehydrogenase system (e.g., Schindler et al. Science (2000) 289: 1938-1942). In this assay, the oxidation of NADH (thus the decrease at A340 nm) was continuously monitored spectrophometrically. The reaction mixture (100 μL) contained PDGFRβ (DeCode, 15.7 nM), polyE4Y (2.5 mg/mL), MgCl2 (10 mM), pyruvate kinase (4 units), lactate dehydrogenase (0.7 units), phosphoenol pyruvate (1 mM) and NADH (0.28 mM) and ATP (500 μM) in a 90 mM Tris buffer containing 0.2% octyl-glucoside and 1% DMSO, at pH 7.5. The inhibition reaction was started by mixing serial diluted test compound with the above reaction mixture. The absorption at 340 nm was monitored continuously for 4 h at 30° C. on a Polarstar Optima or Synergy 2 plate reader. The reaction rate was calculated using the 1.5 to 2.5 h time frame. Percent inhibition was obtained by comparison of reaction rate with that of a control (i.e. with no test compound). IC50 values were calculated from a series of percent inhibition values determined at a range of inhibitor concentrations using software routines as implemented in the GraphPad Prism software package.
# [2] = tested on: osteoclast precursors; assay: Osteoclast tartrate-resistant acid phosphatase assay; assay type: cell-based; settings: tartrate-resistant acid phosphatase activity, RANKL and M-CSF, 7-14 days
# Experimental: Osteoclast Tartrate-Resistant Acid Phosphatase Assay
# A serial dilution of test compound was dispensed into a 384-well black clear bottom plate (Nalge Nunc International, Rochester, N.Y.). Compound was diluted by the addition of DMEM media supplemented with 10% characterized fetal bovine serum (Invitrogen, Carlsbad, Calif.). Diluted compound was transferred to a 384-well black clear bottom plate. Two-thousand five hundred osteoclast precursors (Lonza, Walkersville, Md.) were added per well in growth media containing Receptor Activator of Nuclear Factor Kappa-beta ligand (RANKL) and M-CSF (R&D Systems, Minneapolis, Minn.). Plates were incubated for 7-14 days at 37 degrees Celsius, 5% CO2, and 95% humidity to allow differentiation of osteoclast precursors. At the end of the incubation period, 10 μL of supernatant from each well was transferred to a clear 384-well plate. Tartrate-resistant acid phosphatase activity in the supernatant samples was determined using an acid phosphatase assay kit (Sigma, St. Louis, Mo.). Absorbance was measured at 550 nm using a plate reader. Data was analyzed using Prism software (Graphpad, San Diego, Calif.) to calculate IC50 values.
# [3] = biological target: T2, unphosphorylated c-KIT kinase (uKIT, Seq. ID no. 2) (Homo sapiens, UniProt P10721); assay: uKit kinase assay (ADP production coupled to pyruvate kinase/lactate dehydrogenase); assay type: biochemical
# T2 construct: uKit with N-terminal GST fusion used for screening
# Experimental: In this assay, the oxidation of NADH (thus the decrease at A340 nm) was continuously monitored spectrophometrically. […] The inhibition reaction was started by mixing serial diluted test compound with the above reaction mixture. The absorption at 340 nm was monitored continuously for 4 hours at 30° C. on Synergy 2 plate reader (BioTech).
# [4] = tested on: PC-3 M-luc cells; assay: PC-3 peritibial implant model of cancer bone metastasis; assay type: in vivo, mouse; settings: oral dose of 30 mg/kg twice daily for 39 days; scale 0-4; vehicle-treated animals 4
# Text: PC-3 Peritibial Implant Model of Cancer Bone Metastasis To evaluate in vivo anti-cancer activity of compounds of formula I, the PC-3 M-luc peritibial injection model of bone invasiveness model was employed. Briefly, PC-3 M-luc cells were obtained from Xenogen Corporation (Caliper Life Sciences) and expanded using MEM media modified with L-Glutamine (Cell Gro® #10-045-CV) supplemented with 10% fetal bovine serum, 1% penicillin-streptomycin-glutamine, 1% non-essential amino acids, and 1% MEM vitamins in 5% CO2 atmosphere at 37° C. Six to 7 week old male nude mice (Crl:NU-Foxnlnu) were obtained from Charles River Laboratories. Test mice were implanted peritibially on Day 0 with 1×10^6 cells/mouse (0.1 ml) using an insulin syringe with a fixed 28-gauge needle. The needle was inserted at the ankle between the tibia and fibula until the bevel of the needle reached approximately half way between the knee and ankle. Treatments began on Day 0. Animals were dosed by oral gavage twice daily for the study duration. All procedures carried out in this experiment were conducted in compliance with all the laws, regulations and guidelines of the National Institutes of Health (NIH). […]
# T2 sequence (P10721 with tags, fused parts or gaps): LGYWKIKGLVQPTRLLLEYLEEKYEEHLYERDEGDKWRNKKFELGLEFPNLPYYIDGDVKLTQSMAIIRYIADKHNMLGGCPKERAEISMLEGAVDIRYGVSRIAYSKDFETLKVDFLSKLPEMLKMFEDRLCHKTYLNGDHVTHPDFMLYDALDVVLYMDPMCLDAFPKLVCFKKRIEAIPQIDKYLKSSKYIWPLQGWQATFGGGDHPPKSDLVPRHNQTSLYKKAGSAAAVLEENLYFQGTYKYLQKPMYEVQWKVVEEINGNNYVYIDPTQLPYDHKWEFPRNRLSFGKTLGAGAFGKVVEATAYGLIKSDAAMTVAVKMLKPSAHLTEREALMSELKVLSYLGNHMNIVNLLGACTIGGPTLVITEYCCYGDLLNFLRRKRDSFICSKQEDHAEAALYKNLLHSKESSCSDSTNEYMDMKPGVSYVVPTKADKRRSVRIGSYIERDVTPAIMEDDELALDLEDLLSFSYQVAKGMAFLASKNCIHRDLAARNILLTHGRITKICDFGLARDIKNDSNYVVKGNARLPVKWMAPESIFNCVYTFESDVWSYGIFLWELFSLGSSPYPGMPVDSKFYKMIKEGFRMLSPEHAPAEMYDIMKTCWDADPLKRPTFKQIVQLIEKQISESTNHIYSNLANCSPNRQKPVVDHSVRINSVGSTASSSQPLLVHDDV
# T1 sequence (P09619 557-1106): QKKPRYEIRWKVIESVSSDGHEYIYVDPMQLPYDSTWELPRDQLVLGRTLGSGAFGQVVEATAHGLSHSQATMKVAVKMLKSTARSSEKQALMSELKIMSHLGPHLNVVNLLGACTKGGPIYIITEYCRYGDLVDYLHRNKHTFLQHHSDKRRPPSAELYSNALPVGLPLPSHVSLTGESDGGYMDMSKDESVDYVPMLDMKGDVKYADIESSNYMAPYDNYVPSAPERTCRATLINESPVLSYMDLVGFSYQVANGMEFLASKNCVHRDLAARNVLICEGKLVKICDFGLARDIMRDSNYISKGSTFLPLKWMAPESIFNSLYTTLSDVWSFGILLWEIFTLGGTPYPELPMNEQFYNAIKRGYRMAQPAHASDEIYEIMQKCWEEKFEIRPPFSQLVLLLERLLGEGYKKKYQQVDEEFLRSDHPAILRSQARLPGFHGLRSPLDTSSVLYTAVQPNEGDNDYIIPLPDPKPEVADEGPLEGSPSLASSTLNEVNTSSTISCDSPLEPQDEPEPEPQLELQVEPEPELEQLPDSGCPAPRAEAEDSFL
smiles,measurement,setting,value
"Cc1nc(-c2cnc(NC(C)C)n(C)c2=O)ccc1Oc1ccnc(-c2cnn(C)c2)c1 [Example 10, 2-(isopropylamino)-3-methyl-5-(6-methyl-5-((2-(1-methyl-1H-pyrazol-4-yl)pyridin-4-yl)oxy)pyridin-2-yl)pyrimidin-4(3H)-one]",IC50,[1],> 1000 nM
same,IC50,[2],< 10 nM
same,IC50,[3],100 to 1000 nM
same,lesion score,[4],2
